Read-outs that look alike come from different tables or passages of the source.
Columns and labels:
EGFR del E746_A750 = biological target: T1, EGFR del E746_A750 (Homo sapiens, UniProt P00533, DEL746-750); assay: KINOMEScan KdELECT Kd determination; format: binding
T1 construct: purchased Eurofins DiscoverX (contract assay)
Description: (§4) In vitro kinase activity (inhibitor binding constants (Kd) and biochemical inhibition (IC50’s)) were assessed by Eurofins DiscoverX (Kd determinations) and Eurofins Cerep (biochemical IC50 determinations).

[1] = Metabolic stability in liver microsomes; format: in vitro ADME, human; conditions: for Remaining Percentage: human LM
Description: (§5) Microsome stability was assessed in duplicate (n = 2) in the presence and absence of nicotinamide adenine dinucleotide phosphate (NADPH) with liver microsomes (0.5 mg/mL) from human (BD Gentest) and Sprague-Dawley rats (BD Gentest). Compounds were incubated in liver microsomes at 1 μM and samples (30 μL) were taken at 0.5, 15, 30, 45, and 60 min time points for analysis by LC-MS/MS. Hepatocyte stability was assessed in duplicate (n = 2) at a working cell density of 0.5 × 10^6 cells/mL with hepatocytes from human (BiolVT), Sprague-Dawley rat (BiolVT), cynomolgus monkey (RILD) or beagle dog (BiolVT). […] The in vitro half-life and intrinsic clearances were determined as previously described.[76]
(§6) In vitro half-life (in vitro t1/2) was determined from the slope value in [drawing 1] where k was determined by linear regression of the natural logarithm of the remaining percentage of the parent drug vs the incubation time curve.

[2] = Plasma protein binding by equilibrium dialysis; format: in vitro ADME
Description: (§1) Plasma protein binding and brain tissue binding were determined by Pharmaron, Inc. using the equilibrium dialysis method. […] Following incubation, the samples were analyzed by LC-MS/MS and the concentrations of the compounds were determined in the buffer and plasma solution chambers.

[3] = Metabolic stability in hepatocytes; format: in vitro ADME, Sprague-Dawley rat; conditions: for Remaining Percentages: rat hepatocytes
Description: as §5, §6

MDR1 = assay: MDCKII-MDR1 permeability; format: in vitro ADME, canine; conditions: dog, MDCK-MDR1
MDCKII-MDR1 permeability = format: in vitro ADME, canine; conditions: dog, MDCK-MDR1, MDCKII-MDR1
EGFRL858R = EGFRL858R (Homo sapiens, UniProt P00533, L858R); assay: KINOMEScan KdELECT Kd determination; format: binding; parameters: purchased Eurofins DiscoverX (contract assay); conditions: L858R
Description: as §4

hERG = biological target: T2, hERG (Homo sapiens, UniProt Q12809); assay: hERG manual patch clamp in HEK293; format: cell-based; conditions: human, HEK293 cells stably transfected with hERG; HEK 293 (+hERG), manual patch clamp
T2 construct: host or cells: HEK293

[4] = Brain tissue binding by equilibrium dialysis; format: in vitro ADME; conditions: rat
Description: as §1

Caco-2 permeability = format: in vitro ADME; conditions: human; for recovery at 2 h, 5 μM: Caco-2, Caco-2
Description: A 96-well HTS Transwell plate (Corning) was used for Caco-2 and MDCKII-MDR1 cell seeding. […] Plates were incubated at 37 °C for 2 h, and samples (50 μL) were taken at the beginning and end of the incubation in both the donor and acceptor wells with the assay run in duplicate (n = 2). Samples were analyzed by LC-MS/MS.
The efflux ratio was determined by using the following equation: [drawing 4] where Papp (B–A) indicates the apparent permeability in the basolateral to apical direction and Papp (A–B) indicates the apparent permeability in the apical to basolateral direction.

[5] = system: Ba/F3 EGFR-del E746_A750/C797S cells; assay: CellTiter-Glo cell viability assay; format: cell-based; conditions: Mus musculus, BaF3; 72 h, unadjusted for FBS
Description: (§2) The A431, HCC827, SK-BR-3, ZR-75–30, AU565, and Caco-2 cell lines were obtained from ATCC. The NCI-H1975 cell line was obtained from SIBS. The NCI-H3255 cell line was obtained from CoBioer. Engineered Ba/F3 cell lines were obtained from Crown Bioscience. MCKII-MDR1 cells were obtained from The Netherlands Cancer Institute. HEK293 cells were obtained from Invitrogen. A431 cells were cultured in DMEM (Life Technologies) with 10% FBS. HCC827, NCI-H1975, and AU565 cells were cultured in RPMI1640 (Invitrogen) with 10% FBS. NCI-H3255 cells were cultured in BEGM (Lonza) with 10% FBS. Ba/F3 EGFR-del E746_A750/C797S and Ba/F3 EGFR-L858R/C797S cells were cultured in RPMI (Invitrogen) with 10% FBS. SK-BR-3 cells were cultured in McCoy’s 5a (Invitrogen) with 10% FBS. ZR-75-30 cells were cultured in RPMI1640 (Invitrogen) with 20% FBS. Caco-2 and MCKII-MDR1 culture information is given in the Permeability Studies section. HEK293 cells were cultured in DMEM (Gibco) with 10% FBS, 0.1 mM NEAA, 25 mM HEPES, 100 U/mL penicillin-streptomycin, μg/mL blasticidin, and 400 μg/mL Geneticin. All cells were cultured in a humidified incubator with 5% CO2 at 37 °C.
(§3) Viability assays using A431, HCC827, NCI-H1975, NCI-H3255, Ba/F3 EGFR-del E746_A750/C797S, Ba/F3 EGFR-L858R/C797S, AU565, SK-BR-3, and ZR-75-30 cells were performed at Crown BioScience. Cells were plated into 96-well plates at 1500–7000 cells per well and dosed in triplicate (n = 3) in a nine-point, 4-fold dilution series with compounds (0.15 nM to 10 μM) in DMSO and incubated for 72 h. After 72 h, cell viability was assayed by CellTiter-Glo Luminescent Viability Assay (Promega). Dose–response curves were generated and used to calculate the IC50 values which were calculated on GraphPad Prism from the nonlinear regression equation fitted with a sigmoidal dose response and are presented as mean ± SEM.

[6] = system: Ba/F3 EGFR-L858R/C797S cells; assay: CellTiter-Glo cell viability assay; format: cell-based; conditions: Mus musculus, BaF3; 72 h, unadjusted for FBS
Description: as §2, §3

[7] = Metabolic stability in hepatocytes; format: in vitro ADME, human; conditions: for Remaining Percentages: human hepatocytes
Description: as §5, §6

[8] = system: NCI-H3255 (EGFR mutation = L858R); assay: CellTiter-Glo cell viability assay; format: cell-based, human; conditions: Homo sapiens, NCI-H3255; 72 h, unadjusted for FBS
Description: (§7) The NCI-H3255 cell line was obtained from CoBioer. […] NCI-H3255 cells were cultured in BEGM (Lonza) with 10% FBS. […] All cells were cultured in a humidified incubator with 5% CO2 at 37 °C.

[9] = system: HCC827 (EGFR mutation = exon19del); assay: CellTiter-Glo cell viability assay; format: cell-based, human; conditions: Homo sapiens, HCC827; 72 h, unadjusted for FBS
Description: as §7

[10] = Sprague-Dawley, rat, rat plasma

T1 sequence (P00533 with tags, fused parts or gaps DEL746-750): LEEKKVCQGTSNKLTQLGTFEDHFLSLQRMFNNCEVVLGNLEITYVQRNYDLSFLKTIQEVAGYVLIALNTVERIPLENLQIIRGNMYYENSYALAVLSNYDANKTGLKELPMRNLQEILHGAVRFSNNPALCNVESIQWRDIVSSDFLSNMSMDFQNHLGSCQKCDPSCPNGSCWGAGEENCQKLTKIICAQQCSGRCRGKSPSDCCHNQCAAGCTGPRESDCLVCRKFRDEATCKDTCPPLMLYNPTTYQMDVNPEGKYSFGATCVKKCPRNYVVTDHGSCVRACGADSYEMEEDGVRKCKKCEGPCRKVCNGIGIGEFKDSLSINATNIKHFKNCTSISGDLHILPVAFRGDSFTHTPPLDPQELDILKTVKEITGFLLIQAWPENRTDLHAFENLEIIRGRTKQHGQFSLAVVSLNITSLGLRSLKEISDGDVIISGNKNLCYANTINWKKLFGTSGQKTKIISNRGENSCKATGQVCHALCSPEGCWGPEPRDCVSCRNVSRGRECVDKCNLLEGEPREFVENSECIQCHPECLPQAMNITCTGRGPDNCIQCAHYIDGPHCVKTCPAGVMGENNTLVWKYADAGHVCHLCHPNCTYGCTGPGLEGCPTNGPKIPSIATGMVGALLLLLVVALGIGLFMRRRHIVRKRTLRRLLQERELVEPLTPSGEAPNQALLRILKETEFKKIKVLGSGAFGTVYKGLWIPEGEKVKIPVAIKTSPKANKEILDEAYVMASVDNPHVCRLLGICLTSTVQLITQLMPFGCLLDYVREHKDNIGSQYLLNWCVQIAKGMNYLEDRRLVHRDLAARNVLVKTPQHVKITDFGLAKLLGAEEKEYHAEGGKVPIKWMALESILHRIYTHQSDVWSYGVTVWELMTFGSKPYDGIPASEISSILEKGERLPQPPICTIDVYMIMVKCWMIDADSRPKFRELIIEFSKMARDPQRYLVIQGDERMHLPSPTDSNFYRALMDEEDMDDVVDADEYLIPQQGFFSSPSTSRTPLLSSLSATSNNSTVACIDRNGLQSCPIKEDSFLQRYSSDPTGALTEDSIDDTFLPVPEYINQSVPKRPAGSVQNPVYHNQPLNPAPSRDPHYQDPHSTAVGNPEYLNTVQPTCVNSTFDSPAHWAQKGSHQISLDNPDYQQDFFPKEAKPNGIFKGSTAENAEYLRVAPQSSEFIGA
T2 sequence (Q12809 whole entry): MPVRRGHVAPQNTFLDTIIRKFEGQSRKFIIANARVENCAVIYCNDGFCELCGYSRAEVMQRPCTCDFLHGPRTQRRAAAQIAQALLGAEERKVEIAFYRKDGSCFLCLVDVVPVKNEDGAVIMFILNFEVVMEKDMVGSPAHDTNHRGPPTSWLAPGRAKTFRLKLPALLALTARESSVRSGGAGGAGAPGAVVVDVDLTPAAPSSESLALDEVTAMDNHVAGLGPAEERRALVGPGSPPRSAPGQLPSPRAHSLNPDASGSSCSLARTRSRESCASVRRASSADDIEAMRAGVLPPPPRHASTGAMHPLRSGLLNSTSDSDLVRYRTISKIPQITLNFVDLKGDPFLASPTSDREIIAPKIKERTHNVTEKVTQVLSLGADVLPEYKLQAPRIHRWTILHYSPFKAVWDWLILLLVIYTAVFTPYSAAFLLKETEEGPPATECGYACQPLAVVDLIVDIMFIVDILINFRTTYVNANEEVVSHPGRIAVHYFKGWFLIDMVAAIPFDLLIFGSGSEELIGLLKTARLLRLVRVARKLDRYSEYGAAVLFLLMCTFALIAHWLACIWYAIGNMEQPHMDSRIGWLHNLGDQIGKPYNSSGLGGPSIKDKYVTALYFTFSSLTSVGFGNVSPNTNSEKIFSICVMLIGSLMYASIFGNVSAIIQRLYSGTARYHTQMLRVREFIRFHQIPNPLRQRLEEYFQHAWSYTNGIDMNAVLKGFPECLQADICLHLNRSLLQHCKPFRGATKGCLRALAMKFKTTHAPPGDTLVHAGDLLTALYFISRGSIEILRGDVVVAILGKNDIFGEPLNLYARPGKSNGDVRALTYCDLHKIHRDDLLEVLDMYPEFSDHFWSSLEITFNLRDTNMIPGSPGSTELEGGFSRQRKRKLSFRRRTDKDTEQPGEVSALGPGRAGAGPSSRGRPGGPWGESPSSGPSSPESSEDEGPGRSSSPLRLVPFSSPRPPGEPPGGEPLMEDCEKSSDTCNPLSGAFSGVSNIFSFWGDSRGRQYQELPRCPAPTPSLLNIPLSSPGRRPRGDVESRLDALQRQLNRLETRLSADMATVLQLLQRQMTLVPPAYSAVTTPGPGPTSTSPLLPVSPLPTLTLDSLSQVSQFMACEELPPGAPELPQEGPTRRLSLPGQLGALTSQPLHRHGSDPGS
Chain of EGFRL858R (P00533 25-1210 L858R): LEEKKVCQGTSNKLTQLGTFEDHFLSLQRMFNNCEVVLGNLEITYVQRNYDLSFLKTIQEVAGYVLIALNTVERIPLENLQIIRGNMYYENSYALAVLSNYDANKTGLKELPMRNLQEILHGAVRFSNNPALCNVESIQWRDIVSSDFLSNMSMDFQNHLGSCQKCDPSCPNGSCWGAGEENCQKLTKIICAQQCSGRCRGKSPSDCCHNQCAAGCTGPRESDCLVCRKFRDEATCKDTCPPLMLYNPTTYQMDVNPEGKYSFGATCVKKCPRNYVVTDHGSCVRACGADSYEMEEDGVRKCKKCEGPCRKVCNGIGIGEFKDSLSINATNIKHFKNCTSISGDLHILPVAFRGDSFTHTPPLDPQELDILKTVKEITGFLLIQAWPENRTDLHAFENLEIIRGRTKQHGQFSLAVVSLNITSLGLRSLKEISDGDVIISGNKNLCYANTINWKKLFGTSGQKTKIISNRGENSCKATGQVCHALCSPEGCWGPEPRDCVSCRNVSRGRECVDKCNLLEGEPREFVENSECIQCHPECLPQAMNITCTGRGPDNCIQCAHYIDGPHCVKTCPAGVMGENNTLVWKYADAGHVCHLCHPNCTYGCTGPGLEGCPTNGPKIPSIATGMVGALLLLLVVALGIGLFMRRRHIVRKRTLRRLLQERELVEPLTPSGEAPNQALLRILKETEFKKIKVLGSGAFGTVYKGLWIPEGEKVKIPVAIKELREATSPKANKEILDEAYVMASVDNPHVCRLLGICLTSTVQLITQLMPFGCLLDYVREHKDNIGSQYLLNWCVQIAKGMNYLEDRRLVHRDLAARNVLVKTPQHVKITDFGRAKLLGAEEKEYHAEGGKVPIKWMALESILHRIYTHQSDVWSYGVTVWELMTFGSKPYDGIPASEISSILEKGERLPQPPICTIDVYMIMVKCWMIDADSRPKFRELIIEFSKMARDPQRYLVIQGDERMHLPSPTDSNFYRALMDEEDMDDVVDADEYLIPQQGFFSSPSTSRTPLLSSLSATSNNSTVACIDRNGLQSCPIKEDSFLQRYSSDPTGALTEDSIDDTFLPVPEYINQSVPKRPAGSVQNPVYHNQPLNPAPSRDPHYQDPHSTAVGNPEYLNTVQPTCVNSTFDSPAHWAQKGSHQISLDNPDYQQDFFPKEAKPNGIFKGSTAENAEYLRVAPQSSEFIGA

Q: Which Kd (EGFR del E746_A750) does the source give for `COc1cc2ncnc(Nc3cccc(Cl)c3F)c2cc1OCCON1CCOCC1` [Compound 7, N-(3-Chloro-2-fluorophenyl)-7-methoxy-6-(2-(morpholinooxy)ethoxy)quinazolin-4-amine] here?
A: < 0.2 nM

Q: What about the “Remaining Percentage” value ([1]; +Cofactors, 15 min) of the same molecule?
A: 43.79%

Q: What about the “Remaining Percentage” value ([1]; +Cofactors, 30 min) of the same molecule?
A: 21.93%

Q: And the “Remaining Percentage” value ([1]; +Cofactors, 45 min)?
A: 10.84%

Q: And the “Remaining Percentage” value ([1]; +Cofactors, 60 min)?
A: 7.20%

Q: What about the “Remaining Percentage” value ([1]; -Cofactors, 60 min) of the same molecule?
A: 87.34%

Q: And the half-life at 1 h, 1 µM ([1]; human, liver microsomes, read-out: LM t1/2)?
A: 14 min

Q: And the microsomal CLint at 1 h, 1 µM ([1]; human, liver microsomes, read-out: LMClint)?
A: 99 µL/min/mg

Q: What about the fraction unbound at 6 h, 5 μM ([2]; Sprague-Dawley, rat, plasma, 5 μM, read-out: fu,plasma% / %Unbound) of the same molecule?
A: 0.105

Q: And the recovery at 6 h, 5 μM [2, 10]?
A: 110%

Q: What about the remaining at 6 h, 5 μM [2, 10] of the same molecule?
A: 101%

Q: What about the fraction unbound at 6 h, 5 μM ([2]; Sprague-Dawley, rat, rat plasma, read-out: %Bound (converted)) of the same molecule?
A: 0.105

Q: What about the recovery at 6 h, 5 μM ([2]; human, human plasma) of the same molecule?
A: 98.9%

Q: What about the remaining at 6 h, 5 μM ([2]; human, human plasma) of the same molecule?
A: 99.4%

Q: What about the fraction unbound at 6 h, 5 μM ([2]; human, human plasma, read-out: fu,plasma% / %Unbound (converted)) of the same molecule?
A: 0.0412

Q: What about the fraction unbound at 6 h, 5 μM ([2]; plasma, human, 5 μM, read-out: fu,plasma% / %Unbound (converted)) of the same molecule?
A: 0.0412

Q: What about the hepatocyte CLint at 2 h, 1 µM ([3]; Sprague-Dawley, rat, hepatocytes) of the same molecule?
A: 126 µL/min/1e6 cells

Q: What about the half-life at 2 h, 1 µM ([3]; Sprague-Dawley, rat, hepatocytes, read-out: HEP t1/2) of the same molecule?
A: 11 min

Q: And the “Remaining Percentages” value ([3]; 15 min)?
A: 38.18%

Q: What about the “Remaining Percentages” value ([3]; 30 min) of the same molecule?
A: 15.61%

Q: And the “Remaining Percentages” value ([3]; 60 min)?
A: 2.48%

Q: What about the “Remaining Percentages” value ([3]; 90 min) of the same molecule?
A: 0.92%

Q: What about the “Remaining Percentages” value ([3]; 120 min) of the same molecule?
A: 0.74%

Q: And the efflux ratio at 2 h, 1 µM (MDR1)?
A: 1.1

Q: What about the efflux ratio at 2 h, 1 μM (MDR1) of the same molecule?
A: 1.06

Q: And the Papp A→B at 2 h, 1 µM (MDR1; 1 μM, 2 h)?
A: 12.6 ×10⁻⁶ cm/s

Q: What about the Papp A→B at 2 h, 1 μM (MDR1; 1 μM, 2 h) of the same molecule?
A: 12.6 ×10⁻⁶ cm/s

Q: What about the Papp B→A at 2 h, 1 µM (MDR1; 1 μM, 2 h) of the same molecule?
A: 13.3 ×10⁻⁶ cm/s

Q: What about the Papp B→A at 2 h, 1 μM (MDR1; 1 μM, 2 h) of the same molecule?
A: 13.3 ×10⁻⁶ cm/s

Q: What about the recovery at 2 h, 1 μM (MDCKII-MDR1 permeability; read-out: Recovery% (AP-BL)) of the same molecule?
A: 73.5%

Q: And the recovery at 2 h, 1 μM (MDCKII-MDR1 permeability; read-out: Recovery% (BL-AP))?
A: 76.4%

Q: What about the Kd (EGFRL858R) of the same molecule?
A: < 0.2 nM

Q: What about the IC50 (hERG) of the same molecule?
A: 8480 ± 3500 nM

Q: What about the recovery at 6 h, 5 μM ([4]; Sprague-Dawley (SD), rat brain homogenate) of the same molecule?
A: 94.7%

Q: And the fraction unbound at 6 h, 5 μM ([4]; Sprague-Dawley, brain homogenate, read-out: fu,brain% / %Unboundbrain)?
A: 0.0478

Q: And the remaining at 6 h, 5 μM ([4]; Sprague-Dawley, rat brain homogenate)?
A: 98.3%

Q: And the fraction unbound at 6 h, 5 μM ([4]; Sprague-Dawley, rat brain homogenate, read-out: %Boundbrain (converted))?
A: 0.0478

Q: And the efflux ratio at 2 h, 5 µM (Caco-2 permeability; Caco-2)?
A: 1

Q: What about the recovery at 2 h, 5 μM (Caco-2 permeability; read-out: Recovery% (AP-BL)) of the same molecule?
A: 72.9%

Q: And the recovery at 2 h, 5 μM (Caco-2 permeability; read-out: Recovery% (BL-AP))?
A: 72.2%

Q: What about the Papp A→B at 2 h, 5 µM (Caco-2 permeability; Caco-2, 5 μM, 2 h) of the same molecule?
A: 10.9 ×10⁻⁶ cm/s

Q: And the Papp A→B at 2 h, 5 μM (Caco-2 permeability; Caco-2, 5 μM, 2 h)?
A: 10.9 ×10⁻⁶ cm/s

Q: And the Papp B→A at 2 h, 5 µM (Caco-2 permeability; Caco-2, 5 μM, 2 h)?
A: 10.8 ×10⁻⁶ cm/s

Q: And the Papp B→A at 2 h, 5 μM (Caco-2 permeability; Caco-2, 5 μM, 2 h)?
A: 10.8 ×10⁻⁶ cm/s

Q: And the IC50 [5]?
A: 2.5 nM

Q: What about the IC50 [6] of the same molecule?
A: 5 nM

Q: What about the “Remaining Percentages” value ([7]; 15 min) of the same molecule?
A: 96.13%

Q: What about the “Remaining Percentages” value ([7]; 30 min) of the same molecule?
A: 87.34%

Q: And the “Remaining Percentages” value ([7]; 60 min)?
A: 76.27%

Q: What about the “Remaining Percentages” value ([7]; 90 min) of the same molecule?
A: 61.58%

Q: And the “Remaining Percentages” value ([7]; 120 min)?
A: 45.68%

Q: What about the hepatocyte CLint at 2 h, 1 µM ([7]; human, hepatocytes) of the same molecule?
A: 13 µL/min/1e6 cells

Q: What about the half-life at 2 h, 1 µM ([7]; human, hepatocytes, read-out: HEP t1/2) of the same molecule?
A: 108 min

Q: What about the IC50 [8] of the same molecule?
A: 17 nM

Q: What about the IC50 [9] of the same molecule?
A: 0.31 nM
